# Laboratory results taken from publication PMC8151276, “An Integrated Approach toward NanoBRET Tracers for Analysis of GPCR Ligand Engagement” (Molecules, 2021).
# Key:
# Format in all cases: binding
# LTB4R2 = molecular target: T1, LTB4R2 (Homo sapiens, UniProt Q9NPC1); assay: NanoBRET screen HiBiT-LTB4R2 in HEK293; details: LTB4R2
# T1 construct: purchased Promega (in-house HiBiT-GPCR construct library, NanoBRET)
# T1 sequence (Q9NPC1 1-358): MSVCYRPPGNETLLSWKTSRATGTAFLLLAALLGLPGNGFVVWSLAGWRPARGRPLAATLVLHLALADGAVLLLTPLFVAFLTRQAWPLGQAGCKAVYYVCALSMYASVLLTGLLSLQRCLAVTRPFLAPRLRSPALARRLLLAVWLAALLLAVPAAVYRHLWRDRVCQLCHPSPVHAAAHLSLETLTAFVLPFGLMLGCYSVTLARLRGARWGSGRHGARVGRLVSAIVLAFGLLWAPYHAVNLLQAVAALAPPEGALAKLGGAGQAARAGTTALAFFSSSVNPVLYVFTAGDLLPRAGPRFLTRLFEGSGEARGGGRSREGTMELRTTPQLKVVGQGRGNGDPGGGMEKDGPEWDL
# Procedure: (§1) Each tracer candidate was screened across the entire library of HiBiT-GPCR constructs using NanoBRET as the detection modality. As depicted in Figure 4A, the specificity of interactions was evaluated through decrease in BRET due to competitive displacement of a bound tracer by excess parental compound. Each tracer was analyzed for binding to each HiBiT-GPCR fusion in the absence and in the presence of competing parental compound. Briefly, HEK293 cells were transfected with HiBiT-GPCR constructs diluted into promoterless DNA to reduce expression and maximize translocation to the cell surface. Each tracer candidate was then screened at concentrations of 1 μM and 0.1 μM across cells expressing these fusions. Cells were treated for 1.5 h with tracer either alone or in the presence of 20 μM competing parental compound (i.e., control). BRET was measured upon addition of purified LgBiT and subsequent complementation with HiBiT genetically fused to a GPCR. The specificity of interactions was assessed through a decrease in BRET signal due to competitive displacement of the bound tracer. To further gauge the robustness of these interactions, the fold response over the control (i.e., BRETtracer/BRETcontrol) was calculated. We chose a 1.5-fold response, which translates to ≥7-fold signal over noise as the minimal threshold required to score an interaction as positive. […]. Below we highlight the screening results obtained for our exemplary fluorescent tracers based on Clozapine, Amitriptyline and AZD1283.
# (§2) HiBiT-GPCR DNA constructs were diluted in 10 mM Tris pH 8 to a final concentration of 0.01 μg/μL, arrayed in 96-well plates and stored at −20 °C. For transfection, HEK293 cells were suspended in Opti-MEM (without phenol red) supplemented with 2% fetal bovine serum (Seradigm) and 100 units/mL penicillin–streptomycin (Gibco) at a final concentration of 220,000 cells/mL and dispensed into white 96-well plates at 90 μL/well. Subsequent transfections and screens were carried using an Agilent Bravo Automated Liquid Handling Platform. First, the 96-well HiBiT DNA arrays were diluted 25-fold in Opti-MEM (without serum or phenol red) to a final concentration of 0.0004 μg/μL and 20 μL of the diluted DNAs were transferred into new 96-well plates. Next, promoterless carrier DNA (1 μg/μL) was diluted 25-fold (0.04 μg/μL) and then dispensed into the diluted arrays at 20 μL/well. Following brief mixing, Viafect transfection reagent (Promega) diluted 16-fold into Opti-MEM was dispensed into the plates at 40 μL/well. After mixing by pipetting, plates were incubated for 10 min on the pipetting station deck. The DNA-transfection reagent complexes were then added to plates containing cells. To facilitate the screen, 10 μL of DNA-transfection reagent complexes were added in duplicates to the top 4 and bottom 4 rows, resulting in two identical 48-well arrays per plate. Plates with transfected cells were incubated for 18–20 h at 37 °C/5% CO2. A screen of each tracer across the entire library using two different concentrations requires duplicate plates of transfected cells. Depending on the number of tracers being screened, transfections can be scaled up using the same ratios. The next day, for each tracer, four 20× screening solutions in tracer dilution buffer (Promega) were prepared: two duplicates at final concentration of 20 μM and two duplicates at a final concentration of 2 μM. A competing unmodified compound was added to one of each duplicate at a final concentration of 400 μM. The four resulting solutions were diluted 4-fold in Opti-MEM without serum or phenol red to generate 5× solutions (5 µM and 0.5 µM tracer +/− 100 μM competing compound). To screen the library, a BioTek MultiFlo FX liquid dispenser was used to dispense 22.5 µL of tracer solution to the top 4 rows and 22.5 µL tracer + competing compound solution to the 4 bottom rows. Plates were briefly mixed on an orbital shaker and incubated for 1.5 h at room temperature. […]
# OXER1 = molecular target: T2, OXER1 (Homo sapiens, UniProt Q8TDS5); assay: NanoBRET screen HiBiT-OXER1 in HEK293; details: OXER1
# T2 construct: purchased Promega (in-house HiBiT-GPCR construct library, NanoBRET)
# T2 sequence (Q8TDS5 whole entry): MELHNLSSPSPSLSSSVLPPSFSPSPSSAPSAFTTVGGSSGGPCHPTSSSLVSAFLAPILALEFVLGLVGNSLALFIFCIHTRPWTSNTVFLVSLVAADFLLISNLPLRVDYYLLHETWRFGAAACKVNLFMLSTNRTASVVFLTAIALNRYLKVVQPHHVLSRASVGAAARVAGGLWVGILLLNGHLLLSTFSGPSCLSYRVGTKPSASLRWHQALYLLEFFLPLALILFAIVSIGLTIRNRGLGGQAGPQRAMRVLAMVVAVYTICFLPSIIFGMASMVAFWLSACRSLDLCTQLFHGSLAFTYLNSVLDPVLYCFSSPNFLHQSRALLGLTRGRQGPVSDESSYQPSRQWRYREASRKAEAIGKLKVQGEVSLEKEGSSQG
# Procedure: as §1, §2
# HTR5A = molecular target: T3, HTR5A (Homo sapiens, UniProt P47898); assay: NanoBRET screen HiBiT-HTR5A in HEK293; details: HTR5A
# T3 construct: purchased Promega (in-house HiBiT-GPCR construct library, NanoBRET)
# T3 sequence (P47898 whole entry): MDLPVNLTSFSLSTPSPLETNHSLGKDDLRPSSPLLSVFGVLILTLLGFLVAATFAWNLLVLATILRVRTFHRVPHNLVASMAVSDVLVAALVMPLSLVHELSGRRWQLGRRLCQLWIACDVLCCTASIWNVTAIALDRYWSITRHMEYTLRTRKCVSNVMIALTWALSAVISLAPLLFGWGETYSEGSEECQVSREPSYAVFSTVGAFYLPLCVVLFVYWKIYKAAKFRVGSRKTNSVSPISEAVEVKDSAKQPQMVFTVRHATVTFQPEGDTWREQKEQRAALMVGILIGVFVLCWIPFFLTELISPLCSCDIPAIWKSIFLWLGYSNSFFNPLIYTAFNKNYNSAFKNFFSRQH
# Procedure: as §1, §2
# GALR1 = molecular target: T4, GALR1 (Homo sapiens, UniProt P47211); assay: NanoBRET screen HiBiT-GALR1 in HEK293; details: GALR1
# T4 construct: purchased Promega (in-house HiBiT-GPCR construct library, NanoBRET)
# T4 sequence (P47211 1-349): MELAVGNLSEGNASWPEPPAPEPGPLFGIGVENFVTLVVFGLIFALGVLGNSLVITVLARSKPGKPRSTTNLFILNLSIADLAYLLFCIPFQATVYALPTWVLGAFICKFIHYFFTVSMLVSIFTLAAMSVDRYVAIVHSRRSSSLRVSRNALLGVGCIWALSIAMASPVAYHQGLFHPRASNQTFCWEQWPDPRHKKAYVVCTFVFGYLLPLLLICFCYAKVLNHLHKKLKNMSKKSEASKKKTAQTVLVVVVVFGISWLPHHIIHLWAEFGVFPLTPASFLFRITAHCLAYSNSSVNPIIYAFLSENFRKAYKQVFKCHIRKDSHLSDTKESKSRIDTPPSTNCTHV
# Procedure: as §1, §2
# PTGFR = molecular target: T5, PTGFR (Homo sapiens, UniProt P43088); assay: NanoBRET screen HiBiT-PTGFR in HEK293; details: PTGFR
# T5 construct: purchased Promega (in-house HiBiT-GPCR construct library, NanoBRET)
# T5 sequence (P43088 whole entry): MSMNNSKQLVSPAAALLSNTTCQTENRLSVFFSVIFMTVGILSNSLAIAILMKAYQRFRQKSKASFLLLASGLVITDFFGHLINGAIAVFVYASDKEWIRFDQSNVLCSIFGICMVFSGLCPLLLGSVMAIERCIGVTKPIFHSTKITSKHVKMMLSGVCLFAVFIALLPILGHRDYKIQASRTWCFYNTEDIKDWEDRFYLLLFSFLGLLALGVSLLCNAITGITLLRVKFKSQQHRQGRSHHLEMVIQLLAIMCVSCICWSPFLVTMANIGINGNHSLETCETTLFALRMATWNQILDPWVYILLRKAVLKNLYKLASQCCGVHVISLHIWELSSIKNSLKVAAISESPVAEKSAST
# Procedure: as §1, §2
# P2RY4 = molecular target: T6, P2RY4 (Homo sapiens, UniProt P51582); assay: NanoBRET screen HiBiT-P2RY4 in HEK293; details: P2RY4
# T6 construct: purchased Promega (in-house HiBiT-GPCR construct library, NanoBRET)
# T6 sequence (P51582 whole entry): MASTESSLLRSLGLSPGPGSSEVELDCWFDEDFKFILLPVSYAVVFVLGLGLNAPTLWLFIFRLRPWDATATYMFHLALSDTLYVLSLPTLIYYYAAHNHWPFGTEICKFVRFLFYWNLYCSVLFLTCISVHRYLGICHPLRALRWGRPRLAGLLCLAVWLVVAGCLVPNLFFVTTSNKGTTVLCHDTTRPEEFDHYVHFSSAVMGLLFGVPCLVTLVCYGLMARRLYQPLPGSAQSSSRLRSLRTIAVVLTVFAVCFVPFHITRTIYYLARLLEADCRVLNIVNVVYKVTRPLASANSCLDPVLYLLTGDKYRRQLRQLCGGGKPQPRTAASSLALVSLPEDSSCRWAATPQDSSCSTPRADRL
# Procedure: as §1, §2
SMILES,NanoBRET Fold Response (LTB4R2; tracer 0.1μM),NanoBRET Fold Response (LTB4R2; tracer 1μM),NanoBRET Fold Response (OXER1; tracer 0.1μM),NanoBRET Fold Response (OXER1; tracer 1μM),NanoBRET Fold Response (HTR5A; tracer 0.1μM),NanoBRET Fold Response (HTR5A; tracer 1μM),NanoBRET Fold Response (GALR1; tracer 0.1μM),NanoBRET Fold Response (GALR1; tracer 1μM),NanoBRET Fold Response (PTGFR; tracer 0.1μM),NanoBRET Fold Response (PTGFR; tracer 1μM),NanoBRET Fold Response (P2RY4; tracer 0.1μM),NanoBRET Fold Response (P2RY4; tracer 1μM),also measured
CN1CCN(C2=Nc3cc(Cl)ccc3N(CC(=O)NCCOCCOCCOCCOCCNC(=O)CCc3ccc4n3[B-](F)(F)[N+]3=C(c5ccc[nH]5)C=CC3=C4)c3ccccc32)CC1 [Clozapine-c-2-NB590],–,–,–,–,–,–,–,–,–,–,–,–,NanoBRET Fold Response (LTB4R2; 0.1μM tracer): 1.02; NanoBRET Fold Response (LTB4R2; 1μM tracer): 0.91; NanoBRET Fold Response (OXER1; 0.1μM tracer): 1.00; NanoBRET Fold Response (OXER1; 1μM tracer): 0.94; NanoBRET Fold Response (HTR5A; 0.1μM tracer): 1.02; NanoBRET Fold Response (HTR5A; 1μM tracer): 1.00; NanoBRET Fold Response (GALR1; 0.1μM tracer): 1.02; NanoBRET Fold Response (GALR1; 1μM tracer): 1.03; NanoBRET Fold Response (PTGFR; 0.1μM tracer): 1.00; NanoBRET Fold Response (PTGFR; 1μM tracer): 1.10; NanoBRET Fold Response (P2RY4; 0.1μM tracer): 1.00; NanoBRET Fold Response (P2RY4; 1μM tracer): 0.95
O=C(CCOCCOCCOCCOCCNC(=O)CCc1ccc2n1[B-](F)(F)[N+]1=C(c3ccc[nH]3)C=CC1=C2)NCCCN1CCN(C2=Nc3ccccc3Oc3ccc(Cl)cc32)CC1 [Loxapine-a-2-NB590],0.90,0.95,0.93,1.09,0.97,1.32,1.03,1.21,1.03,1.02,0.95,1.28,–
COc1ccccc1N1CCN(CCCCN2C(=O)c3ccc(CNC(=O)CCOCCOCCOCCOCCNC(=O)CCc4ccc5n4[B-](F)(F)[N+]4=C(c6ccc[nH]6)C=CC4=C5)cc3C2=O)CC1 [NAN-190-2-NB590],0.95,1.05,0.95,–,0.96,1.13,1.02,–,1.00,1.00,–,1.18,–
COc1ccccc1N1CCN(CCCCN2C(=O)c3ccc(CNC(=O)CCOCCNC(=O)c4ccc(CNC(=O)CCc5ccc6n5[B-](F)(F)[N+]5=C(c7ccc[nH]7)C=CC5=C6)cc4)cc3C2=O)CC1 [NAN-190-3-NB590],0.76,1.30,1.34,0.63,0.99,1.06,1.09,0.99,0.96,0.90,0.86,0.82,–
O=C(CCc1ccc2n1[B-](F)(F)[N+]1=C(c3ccc[nH]3)C=CC1=C2)NCc1ccc(C(=O)NCCOCCC(=O)N[C@@H]2CC[C@@]3(O)[C@H]4Cc5ccc(O)c6c5[C@@]3(CCN4CC3CC3)[C@H]2O6)cc1 [Naltrexone-3-NB590],0.89,1.36,0.78,0.74,0.69,0.98,0.99,0.89,1.10,0.91,1.32,0.88,–
Cc1cc2c(s1)Nc1ccccc1N=C2N1CCN(CCCNC(=O)CCOCCOCCOCCOCCNC(=O)CCc2ccc3n2[B-](F)(F)[N+]2=C(c4ccc[nH]4)C=CC2=C3)CC1 [Olanzapine-a-2-NB590],0.97,1.06,0.96,1.04,1.06,1.03,1.03,1.09,1.03,1.07,1.07,0.95,–
O=C(CCc1ccc2n1[B-](F)(F)[N+]1=C(c3ccc[nH]3)C=CC1=C2)NCc1ccc(C(=O)NCCOCCOCCNCC(O)COc2cccc3ccccc23)cc1 (stereo not drawn) [Propranolol-3-NB590],–,–,–,–,–,–,–,–,–,–,–,–,NanoBRET Fold Response (LTB4R2; 0.1μM): 1.01; NanoBRET Fold Response (LTB4R2; 1μM): 0.96; NanoBRET Fold Response (OXER1; 0.1μM): 1.09; NanoBRET Fold Response (OXER1; 1μM): 1.00; NanoBRET Fold Response (HTR5A; 0.1μM): 1.10; NanoBRET Fold Response (HTR5A; 1μM): 1.03; NanoBRET Fold Response (GALR1; 0.1μM): 1.02; NanoBRET Fold Response (GALR1; 1μM): 0.96; NanoBRET Fold Response (PTGFR; 0.1μM): 0.97; NanoBRET Fold Response (PTGFR; 1μM): 1.00; NanoBRET Fold Response (P2RY4; 0.1μM): 1.03; NanoBRET Fold Response (P2RY4; 1μM): 0.92
O=C(CCc1ccc2n1[B-](F)(F)[N+]1=C(c3ccc[nH]3)C=CC1=C2)NCCOCCOCCNC(=O)OCCOCCN1CCN(C2=Nc3ccccc3Sc3ccccc32)CC1 [Quetiapine-a-2-NB590],1.09,1.04,0.99,0.98,0.96,0.99,1.02,0.76,1.00,1.06,1.05,0.84,–
Cc1nc2n(c(=O)c1CCN1CCC(c3noc4cc(F)ccc34)CC1)CCCC2OC(=O)NCCOCCOCCOCCOCCNC(=O)CCc1ccc2n1[B-](F)(F)[N+]1=C(c3ccc[nH]3)C=CC1=C2 (stereo not drawn) [Risperidone-2-NB590],0.97,0.94,1.03,1.18,1.03,1.28,1.00,0.99,1.00,1.02,1.08,0.90,–
